Laboratory results taken from patent US12291494B2, “Methods of treating fibrosis” (Nogra Pharma Limited, priority 2012, dated 2025).

Columns and labels:
CTGF = test: DSS chronic colitis (Ex. 7): Western blot, CTGF; format: in vivo, mice; settings: percentage of optical density vs control group, normalized with GAPDH; DSS 115.1%±16.88%
Experimental: 0.5 cm of frozen colonic samples were cut and mechanically homogenized in RIPA Buffer containing 50 mMTrisHCl pH 7.6, 150 mMNaCl, 1.5 mM MgCl2, 5 mM EDTA, 1% Triton-X and 10% Glycerol, supplemented with 100 mM Sodium Fluoride (NaF), 2 mM Sodium Orthovanadate (Na3VO4), 10 mM Sodium Pyrophosphate (NaPPi), 1 mMphenylmethanesulphone (PMSF) and a classical protease-inhibitor cocktail containing 10 μg/mL Leupeptin and Aprotinin.
30 μg of protein for each sample were separated by PAGE and electroblotted. 100% pure Nitrocellulose membranes were incubated (according with a specific protocol for each antibody) with primary antibodies directed against TGF-β1, CTGF, α-SMA, Collagen-I and GAPDH (purchased from Abcam, Cambridge, UK; 1:1000 for 2 h at RT), and IL-13 (purchased from Antibodies online; 1:1000 for 2 h at RT) diluted in 5% non fat-milk in 0.1% TBS-t. […] Optical density of target bands was determined using a computer-assisted densitometer and the ImageJ public domain software (W. S., Rasband, ImageJ, U. S. National Institutes of Health, Bethesda, MD; http://rsb.info.nih.gov/ij/, 1997-2011). Tissue levels were expressed as units of Optical Density (OD) per quantity of total proteins, normalizing with internal control GAPDH and the results were expressed as percentage of control groups.

C57bl6 mice = test: DSS intestinal fibrosis study: level of fibrosis by Picrosirius red staining; format: in vivo; settings: colon; DSS vehicle 2.27±0.12, control 1.12±0.07
Experimental: Samples of colon obtained were promptly fixed with 10% buffered formalin in PBS (pH 7.4) for 3 h, dehydrated in graded ethanol and embedded in low-temperature-fusion paraffin. Formalin-fixed colonic tissue was processed and 5 μm thick paraffin sections were stained with Picrosirius red staining for histological analysis. Pictures were obtained with a ×20 objective. Each section was analyzed blindly by 3 different experimenters for the quantification of the degree of fibrosis using a score from 0 to 4.

Q: With COC(Cc1ccc(N)cc1)C(=O)O (racemic) [Compound 34, (±)-2-methoxy-3-(4′-aminophenyl) propionic acid] as the compound, how does the “CTGF expression level (Western blot)” value (CTGF) read?
A: 55.57%±17.53%

Q: And the “level of fibrosis, score from 0 to 4 (Picrosirius red)” value (C57bl6 mice)?
A: 1.625±0.15
